Experimental data taken from US6833456B2, “Indolyl-urea derivatives of thienopyridines useful as antiangiogenic agents, and methods for their use” (Agouron Pharmaceuticals, Inc., priority 2002, dated 2004).

How the values were obtained:
PDGFRβ = biological target: T1, PDGFRβ (Homo sapiens, UniProt P09619); test: PAE-PDGFRβ phosphorylation in PAE-PDGFRB cells assay; format: cell-based; settings: PAE cells overexpressing human PDGFRβ, PDGF-BB stimulated; read-out: PAE PDGFR autophos IC50
T1 construct: expressed in transfected cells; host or cells: porcine aorta endothelial (PAE) cells
In short: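 PAE cells overexpressing human PDGFRβ, serum-starved 16 h (0.1% FBS), compound 1 h at 37° C (0.5% DMSO), then 1 μg/mL PDGF-BB with 2 mM Na3VO4 for 8 min. Receptor captured by anti-PDGFRβ, phosphotyrosine detected by HRP-PY20/TMB at 450 nm; IC50 by four-parameter fit.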

HUVEC = test: bFGF HUVEC proliferation; format: cell-based, human; settings: bFGF stimulated HUVEC
[1] = test system: human umbilical vein endothelial cells (HUVEC); test: HUVEC+VEGF proliferation assay; format: cell-based; settings: VEGF 6 ng/mL, MTT
In short: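 HUVEC (passage 3-4), serum-starved 24 h in F12K + 1% FBS, were pre-treated with compound for 1 h (0.1% DMSO final). They were then stimulated with VEGF at 6 ng/mL final. Proliferation was measured after 72 h by MTT dye reduction (4 h), with absorbance read at 595 nm.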

[2] = biological target: T2, unphosphorylated VEGF-R2Δ50 (FLVK) (Homo sapiens, UniProt P35968, DEL940-989/E990V); test: VEGF-R2 coupled spectrophotometric assay, unphosphorylated construct (FLVK); format: biochemical; settings: for inhibition at 0.05 µM: percent inhibition at 50 nM
T2 construct: VEGF-R2Δ50 contains residues 806-939 and 990-1171; made in house; host or cells: baculovirus/insect cell system
In short: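 Human VEGF-R2Δ50 cytosolic kinase (residues 806-939/990-1171, E990V), baculovirus-expressed, unphosphorylated form. PK/LDH-coupled NADH oxidation at 340 nm with 20 mM poly(E4Y1), 3 mM ATP, 60 mM MgCl2, 2 mM MnCl2, 200 mM HEPES pH 7.5, 5-40 nM enzyme; Ki fitted by Morrison equation.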

Mouse PK assay = format: in vivo, B6 female mice; settings: po
Experimental: The pharmacokinetics (e.g., absorption and elimination) of drugs in mice were analyzed using the following experiment. Test compounds were formulated as a suspension in a 30:70 (PEG 400: acidified H2O) vehicle. This solution was administered orally (p.o.) and intraperitoneally (i.p.) at 50 mg/kg to two distinct groups (n=4) of B6 female mice. Blood samples were collected via an orbital bleed at time points: 0 hour (pre-dose), 0.5 hr, 1.0 hr, 2.0 hr, and 4.0 hr post dose. Plasma was obtained from each sample by centrifugation at 2500 rpm for 5 min. Test compound was extracted from the plasma by an organic protein precipitation method. For each time bleed, 50 μL of plasma was combined with 1.0 mL of acetonitrile, vortexed for 2 min. and then spun at 4000 rpm for 15 min. to precipitate the protein and extract out the test compound. Next, the acetonitrile supernatant (the extract containing test compound) was poured into new test tubes and evaporated on a hot plate (25° C.) under a steam of N2 gas. To each tube containing the dried test compound extract, 125 μL of mobile phase (60:40, 0.025 M NH4H2PO4+2.5 mL/L TEA:acetonitrile) was added. The test compound was resuspended in the mobile phase by vortexing and more protein was removed by centrifugation at 4000 rpm for 5 min. Each sample was poured into an HPLC vial for test compound analysis on an Hewlett Packard 1100 series HPLC with UV detection. From each sample, 95 μL was injected onto a Phenomenex-Prodigy reverse phase C-18, 150×3.2 mm column and eluted with a 45-50% acetonitrile gradient run over 10 min. Test-compound plasma concentrations (μg/mL) were determined by a comparison to standard curve (peak area vs. conc. μg/mL) using known concentrations of test compound extracted from plasma samples in the manner described above. Along with the standards and unknowns, three groups (n=4) of quality controls (0.25 μg/mL, 1.5 μg/mL, and 7.5 μg/mL) were run to insure the consistency of the analysis. […] The quantitated test samples were plotted for visual display using Kaleidagraph software and their pharmacokinetic parameters were determined using WIN NONLIN software.

T1 sequence (P09619 33-1106): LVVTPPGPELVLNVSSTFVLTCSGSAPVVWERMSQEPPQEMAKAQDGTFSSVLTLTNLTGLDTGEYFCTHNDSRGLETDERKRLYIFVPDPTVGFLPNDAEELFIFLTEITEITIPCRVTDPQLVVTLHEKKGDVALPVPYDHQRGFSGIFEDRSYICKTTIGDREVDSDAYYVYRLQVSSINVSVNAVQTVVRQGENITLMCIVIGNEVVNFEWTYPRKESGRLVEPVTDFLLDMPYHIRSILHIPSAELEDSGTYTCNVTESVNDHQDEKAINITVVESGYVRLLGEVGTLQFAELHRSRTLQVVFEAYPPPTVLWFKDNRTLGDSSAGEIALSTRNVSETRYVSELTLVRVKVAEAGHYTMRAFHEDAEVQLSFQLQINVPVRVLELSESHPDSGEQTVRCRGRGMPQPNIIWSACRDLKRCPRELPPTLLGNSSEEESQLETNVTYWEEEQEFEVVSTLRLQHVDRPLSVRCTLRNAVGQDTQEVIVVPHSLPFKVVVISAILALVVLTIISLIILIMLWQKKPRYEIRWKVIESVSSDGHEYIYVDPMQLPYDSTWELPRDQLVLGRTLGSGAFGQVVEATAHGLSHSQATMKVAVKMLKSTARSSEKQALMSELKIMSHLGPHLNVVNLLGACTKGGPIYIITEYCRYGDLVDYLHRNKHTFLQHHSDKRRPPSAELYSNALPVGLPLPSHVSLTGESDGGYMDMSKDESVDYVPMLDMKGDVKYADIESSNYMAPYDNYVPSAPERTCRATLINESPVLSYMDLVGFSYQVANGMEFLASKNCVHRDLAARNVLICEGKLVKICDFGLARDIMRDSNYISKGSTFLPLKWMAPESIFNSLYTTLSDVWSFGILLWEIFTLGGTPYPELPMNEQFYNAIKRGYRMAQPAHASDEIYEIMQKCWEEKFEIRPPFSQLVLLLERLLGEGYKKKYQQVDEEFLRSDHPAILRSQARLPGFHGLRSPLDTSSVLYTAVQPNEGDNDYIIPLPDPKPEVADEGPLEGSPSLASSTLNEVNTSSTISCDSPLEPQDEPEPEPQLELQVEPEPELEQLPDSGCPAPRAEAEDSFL
T2 sequence (P35968 with tags, fused parts or gaps DEL940-989/E990V limits assumed): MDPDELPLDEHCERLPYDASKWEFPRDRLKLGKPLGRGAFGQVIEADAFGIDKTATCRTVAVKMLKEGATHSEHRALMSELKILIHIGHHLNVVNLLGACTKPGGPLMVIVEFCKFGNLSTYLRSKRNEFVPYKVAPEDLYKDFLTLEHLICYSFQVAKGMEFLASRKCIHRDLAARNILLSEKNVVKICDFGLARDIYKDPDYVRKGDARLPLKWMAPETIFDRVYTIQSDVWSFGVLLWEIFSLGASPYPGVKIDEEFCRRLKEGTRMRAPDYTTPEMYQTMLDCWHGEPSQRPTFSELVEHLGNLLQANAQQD

| Compound | IC50 (PDGFRβ) | Ki [2] | inhibition at 0.05 µM [2] | AUC (Mouse PK assay; female, B6, mouse, plasma, 50 mg/kg) | Cmax (Mouse PK assay; female, B6, mouse, plasma, 50 mg/kg, p.o., 50 mg/kg, read-out: Mouse Cmax, po ng-h/mL) | Mouse Cmin, po (Mouse PK assay) | IC50 (HUVEC) | IC50 ([1]; 72 hours) | IC50 (HUVEC; Homo sapiens, HUVEC) | IC50 ([1]; Homo sapiens, HUVEC, 72 h) |
| --- | --- | --- | --- | --- | --- | --- | --- | --- | --- | --- |
| 5-[2-(3S-Methoxy-pyrrolidine-1-carbonyl)-thieno[3,2-b]pyridin-7-ylamino]-2-methyl-2,3-dihydro-indole-1-carboxylic acid methylamide [Example 1u] | > 100 nM |  |  |  |  |  | 4840 nM | > 10 nM |  |  |
| CNC(=O)n1c(C)cc2cc(Nc3ccnc4cc(C(=O)N5CC[C@H](O)C5)sc34)ccc21 [Example 1i, 5-[2-(3S-Hydroxy-pyrrolidine-1-carbonyl)-thieno[3,2-b]pyridin-7-ylamino]-2-methyl-indole-1-carboxylic acid methylamide] | ~1000 nM | 0.69 nM | 93% |  |  |  |  |  | 44.2 nM | 1.03 nM |
| C#CCNC(=O)n1c(C)cc2cc(Nc3ccnc4cc(C(=O)N5CC[C@@H](OC)C5)sc34)ccc21 [Example 1p, 5-[2-(3R-Methoxy-pyrrolidine-1-carbonyl)-thieno[3,2-b]pyridin-7-ylamino]-2-methyl-indole-1-carboxylic acid prop-2-ynylamide] | 56 nM | 0.2 nM | 93% | 2530 ng·h/mL | 1230 ng/mL | 34 ng/mL |  |  | 119 nM |  |

Further lines, with some results ahead:

| IC50 (PDGFRβ) | Ki [2] | inhibition at 0.05 µM [2] | AUC (Mouse PK assay; female, B6, mouse, plasma, 50 mg/kg) | Cmax (Mouse PK assay; female, B6, mouse, plasma, 50 mg/kg, p.o., 50 mg/kg, read-out: Mouse Cmax, po ng-h/mL) | Mouse Cmin, po (Mouse PK assay) | Compound | IC50 (HUVEC) | IC50 ([1]; 72 hours) | IC50 (HUVEC; Homo sapiens, HUVEC) | IC50 ([1]; Homo sapiens, HUVEC, 72 h) |
| --- | --- | --- | --- | --- | --- | --- | --- | --- | --- | --- |
|  | 1.19 nM | 95% |  |  |  | COC[C@@H]1C[C@@H](O)CN1C(=O)c1cc2nccc(Nc3ccc4c(c3)cc(C)n4C(=O)NC3CC3)c2s1 [Example 3h] |  |  | 225 nM | 1.94 nM |
| 76.3 nM | 0.505 nM | 88% |  |  |  | CNC(=O)n1c(C)cc2cc(Oc3ccnc4cc(C(=O)N(C)CCO)sc34)ccc21 [Example 3n, 7-(2-Methyl-1-methylcarbamoyl-1H-indol-5-yloxy)-thieno[3,2-b]pyridine-2-carboxylic acid (2-hydroxy-ethyl)-methyl-amide] |  |  | 87 nM | 0.267 nM |
| 212 nM | 0.98 nM | 81% |  |  |  | CNC(=O)n1c(C)cc2cc(Oc3ccnc4cc(C(=O)N5CC(F)(F)C[C@H]5CO)sc34)ccc21 [Example 3p, 5-[2-(4,4-Difluoro-2-hydroxymethyl-pyrrolidine-1-carbonyl)-thieno[3,2-b]pyridin-7-yloxy]-2-methyl-indole-1-carboxylic acid methyl-amide] |  |  | 227 nM | 0.33 nM |
| 15.4 nM | 0.643 nM | 99% |  |  |  | CNC(=O)n1c(C)cc2cc(Oc3ccnc4cc(C(=O)N5CC[C@@H](N(C)C)C5)sc34)ccc21 [Example 8g, 5-[(2-{[(3R)-3-(Dimethylamino)pyrrolidin-1-yl]carbonyl}thieno[3,2-b]pyridin-7-yl)oxy]-N,2-dimethyl-1H-indole-1-carboxamide] |  |  | 9 nM | 0.15 nM |
|  | 0.868 nM | 95% |  |  |  | CO[C@H]1CN(C(=O)c2cc3nccc(Oc4ccc5c(c4)cc(C)n5C(=O)NCCO)c3s2)CC1F (stereo partly drawn) [Example 8k, 5-[(2-{[(4S)-3-Fluoro-4-methoxypyrrolidin-1-yl]carbonyl}thieno[3,2b]pyridin-7-yl)oxy]-N-(2-hydroxyethyl)-2-methyl-1H-indole-1-carboxamide] |  |  | 18 nM | 0.32 nM |
| 18.8 nM | 0.88 nM | 88% |  |  |  | Cc1cc2cc(Oc3ccnc4cc(C(=O)N5CC[C@@H](N(C)C)C5)sc34)ccc2n1C(=O)NCCO [Example 8l, 5-[(2-{[(3R)-3-(Dimethylamino)pyrrolidin-1-yl]carbonyl}thieno[3,2-b]pyridin-7-yl)oxy]-N-(2-hydroxyethyl)-2-methyl-1H-indole-1-carboxamide] |  |  | 63 nM | 1.5 nM |
|  | 4.47 nM | 74% |  |  |  | CNC(=O)n1c(C)cc2cc(Oc3ccnc4cc(C(=O)N5CC(O)C5)sc34)ccc21 [Example 8o, 5-[2-(3-Hydroxy-azetidine-1-carbonyl)-thieno[3,2-b]pyridin-7-yloxy]-2-methyl-indole-1-carboxylic acid methylamide] |  |  | 61 nM | 1.25 nM |
